Target: T1, human FXa (Homo sapiens, UniProt P00742)
T1 construct: FXa solution (human FXa, Haematologic Technologies Inc., Essec Junction, Vt., USA); purchased Haematologic Technologies Inc
Assay: Measurement of Factor Xa inhibition (chromogenic substrate S-2765 method)
Type: biochemical
Conditions: inhibition of Factor Xa activity, screen a), specimen results
Experimental: a) Measurement of Factor Xa Inhibition
The FXa inhibitor potency was measured with a chromogenic substrate method, in a Plato 3300 robotic microplate processor (Rosys AG, CH-8634 Hombrechtikon, Switzerland), using 96-well, half-volume microtiter plates (Costar, Cambridge, Mass., USA; Cat No 3690). Stock solutions of test substance in DMSO (72 μL), 10 mmol/L, alternatively 1 mmol/L were diluted serially 1:3 (24+48 μL) with DMSO to obtain ten different concentrations, which were analyzed as samples in the assay, together with controls and blanks. As control sample melagatran was analysed. The dilutions of each test substance were analyzed consecutively, row-wise on the microtiter plate, with wash-cycles between substances to avoid cross-contamination. […] The final assay concentrations were: test substance 0.0068-133, respectively 0.00068-13.3 μmol/L, S-2765 0.40 mmol/L (KM=0.25 mmol/L) and FXa […]. The linear absorbance increase at 405 nm during 40 min incubation at 37° C. was used for calculation of percent inhibition for the test samples, as compared to references without inhibitor and/or enzyme. […]

T1 sequence (P00742 235-488 limits assumed): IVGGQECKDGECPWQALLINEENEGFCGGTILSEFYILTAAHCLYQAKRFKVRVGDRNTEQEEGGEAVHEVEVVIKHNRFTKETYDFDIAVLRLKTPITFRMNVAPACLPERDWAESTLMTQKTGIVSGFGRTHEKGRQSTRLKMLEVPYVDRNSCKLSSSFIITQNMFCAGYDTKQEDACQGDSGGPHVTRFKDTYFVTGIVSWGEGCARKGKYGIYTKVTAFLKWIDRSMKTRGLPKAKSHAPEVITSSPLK
T1 sequence (P00742 41-179 partner limits assumed): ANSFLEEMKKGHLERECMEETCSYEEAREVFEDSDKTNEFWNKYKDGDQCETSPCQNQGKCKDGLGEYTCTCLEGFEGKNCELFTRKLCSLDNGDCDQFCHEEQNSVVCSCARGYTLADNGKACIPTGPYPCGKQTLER

IC50 [nM]	Compound
98	Cc1cc(N2CCC(C(=O)N3CCN(S(=O)(=O)c4ccc5c(Cl)c[nH]c5c4)CC3)CC2)c[nH]c1=O [Example 6, 4-[4-(3-Chloro-1H-indole-6-sulfonyl)-piperazine-1-carbonyl]-5′-methyl-3,4,5,6-tetrahydro-2H,1′H-[1,3′]bipyridinyl-6′-one]
4.8	Cn1nc(N2CCC(C(=O)N3CCN(S(=O)(=O)c4ccc5c(Cl)c[nH]c5c4)C(O)C3)CC2)ccc1=O (centres unmarked) [Example 3, 6-{4-[4-(3-Chloro-1H-indole-6-sulfonyl)-3-hydroxy-piperazine-1-carbonyl]-piperidin-1-yl}-2-methyl-2H-pyridazin-3-one]
